# ChEMBL document CHEMBL5360542, “Current development of β-carboline derived potential antimalarial scaffolds” (Eur J Med Chem, 2023)
# Legend:
# Plasmodium falciparum [1] = test: Antimalarial activity against artemisinin-sensitive parental Plasmodium falciparum 3D7 infected in O positive erythrocytes assessed as reduction in parasite growth incubated for 48 hrs by giemsa staining based assay; format: functional, organism-based; conditions: 3D7, Erythrocyte
# Plasmodium falciparum [2] = test: Antimalarial activity against artemisinin-resistant Plasmodium falciparum R539T infected in O positive erythrocytes assessed as reduction in parasite growth incubated for 48 hrs by giemsa staining based assay; format: functional, organism-based; conditions: Erythrocyte
# Plasmodium falciparum [3] = test: Antimalarial activity against chloroquine-sensitive Plasmodium falciparum […] assessed as reduction in parasite growth; format: functional, organism-based
# Plasmodium falciparum [4] = test: Antimalarial activity against chloroquine-sensitive Plasmodium falciparum 3D7 by SYBR green assay; format: functional, organism-based
# Plasmodium falciparum [5] = test: Antimalarial activity against Plasmodium falciparum NF54 infected in human erythrocytes assessed as reduction in parasitemia incubated for 48 hrs by [3H]-hypoxanthine based liquid scintillation counting analysis; conditions: NF54, Erythrocyte
# Plasmodium falciparum [6] = test: Antimalarial activity against chloroquine-sensitive Plasmodium falciparum 3D7 transfected in A positive human erythrocytes assessed as reduction in schizont maturation incubated for 48 hrs by giemsa stain based assay; format: functional, organism-based; conditions: 3D7, 48 h
# Plasmodium falciparum [7] = test: Antimalarial activity against chloroquine-resistant Plasmodium falciparum RKL-9 transfected in A positive human erythrocytes assessed as reduction in schizont maturation incubated for 48 hrs by giemsa stain based assay; format: functional, organism-based; conditions: RKL-9, 48 h
# [8] = Selectivity index, ratio of IC50 for chloroquine-resistant Plasmodium falciparum RKL-9 transfected in A positive human erythrocytes to IC50 for chloroquine-sensitive Plasmodium falciparum 3D7 transfected in A positive human erythrocytes; format: functional
# [9] = Cytotoxicity against human dermal fibroblast cultured as 2D cells assessed as inhibition of cell growth incubated for 48 hrs by MTT assay; format: toxicity, cell-based; conditions: human dermal fibroblasts cultured as 2D cells
# Plasmodium berghei [10] = test: (§1) Antiplasmodial activity against Plasmodium berghei NK-65 infected in Swiss albino mouse assessed as reduction of parasitaemia at 100 mg/kg, po administered once daily for 4 days followed by artesunate addition at 50 mg/kg for 60 mins and measured 24 hrs post last dose by giemsa staining based analysis relative to control; format: functional; parameters: scale not given: the % may be the effect or the level left; conditions: time 5 day
# Plasmodium berghei [11] = test: as §1, with “mean survival time” for “reduction”, “mouse” for “parasitaemia”, “analysis” for “analysis relative to control”; format: functional; conditions: time 5 day
structure (smiles),measurement,setting,value
Clc1cc(Cl)c(Cl)c(C2NCCc3c2[nH]c2ccccc32)c1 (stereo not drawn),IC50,Plasmodium falciparum [1],3.43 µM
same,IC50,Plasmodium falciparum [2],4.89 µM
COc1ccc(C2NCCc3c2[nH]c2ccccc32)cc1OC (stereo not drawn),IC50,Plasmodium falciparum [1],3.03 µM
same,IC50,Plasmodium falciparum [2],2.99 µM
O=C(O)CCc1nccc2c1[nH]c1ccccc12,IC50,Plasmodium falciparum [3],0.0767 µg/mL
O=C(c1c[nH]c2ccc(O)cc12)c1nccc2c1[nH]c1ccc(O[C@@H]3O[C@H](CO)[C@@H](O)[C@H](O)[C@H]3O)cc12,IC50,Plasmodium falciparum [4],5 µM
C[C@H]1Cc2c([nH]c3cc(Cl)c(F)cc23)[C@@]2(N1)C(=O)Nc1ccc(Cl)cc12 [CIPARGAMIN],IC50,Plasmodium falciparum [5],0.0005 µM
COC(=O)[C@@H]1Cc2c([nH]c3ccccc23)[C@@H](c2ccc3c(c2)OCO3)N1,IC50,Plasmodium falciparum [6],< 1 µg/mL
same,IC50,Plasmodium falciparum [7],< 1 µg/mL
same,Selectivity Index,[8],>10
same,CC50 at 48 h,[9],> 640 µg/mL
same,Activity,Plasmodium berghei [10],99.69%
same,Survival,Plasmodium berghei [11],25.8 days
